According to publication PMC3921447, “Homologous and heterologous desensitization of guanylyl cyclase-B signaling in GH3 somatolactotropes” (Cell and Tissue Research, 2013):

Key:
GC-B [1] = molecular target: T1, GC-B (Rattus norvegicus, UniProt P16067); assay: Heterologous desensitization of CNP-stimulated (GC-B) cGMP accumulation in GH3 cells; type: cell-based
T1 construct: rapid homologous desensitization of endogenous GC-B receptors in GH3 cells; endogenous in cells; host or cells: GH3 rat somatolactotrope cells
T1 sequence (P16067 17-1047): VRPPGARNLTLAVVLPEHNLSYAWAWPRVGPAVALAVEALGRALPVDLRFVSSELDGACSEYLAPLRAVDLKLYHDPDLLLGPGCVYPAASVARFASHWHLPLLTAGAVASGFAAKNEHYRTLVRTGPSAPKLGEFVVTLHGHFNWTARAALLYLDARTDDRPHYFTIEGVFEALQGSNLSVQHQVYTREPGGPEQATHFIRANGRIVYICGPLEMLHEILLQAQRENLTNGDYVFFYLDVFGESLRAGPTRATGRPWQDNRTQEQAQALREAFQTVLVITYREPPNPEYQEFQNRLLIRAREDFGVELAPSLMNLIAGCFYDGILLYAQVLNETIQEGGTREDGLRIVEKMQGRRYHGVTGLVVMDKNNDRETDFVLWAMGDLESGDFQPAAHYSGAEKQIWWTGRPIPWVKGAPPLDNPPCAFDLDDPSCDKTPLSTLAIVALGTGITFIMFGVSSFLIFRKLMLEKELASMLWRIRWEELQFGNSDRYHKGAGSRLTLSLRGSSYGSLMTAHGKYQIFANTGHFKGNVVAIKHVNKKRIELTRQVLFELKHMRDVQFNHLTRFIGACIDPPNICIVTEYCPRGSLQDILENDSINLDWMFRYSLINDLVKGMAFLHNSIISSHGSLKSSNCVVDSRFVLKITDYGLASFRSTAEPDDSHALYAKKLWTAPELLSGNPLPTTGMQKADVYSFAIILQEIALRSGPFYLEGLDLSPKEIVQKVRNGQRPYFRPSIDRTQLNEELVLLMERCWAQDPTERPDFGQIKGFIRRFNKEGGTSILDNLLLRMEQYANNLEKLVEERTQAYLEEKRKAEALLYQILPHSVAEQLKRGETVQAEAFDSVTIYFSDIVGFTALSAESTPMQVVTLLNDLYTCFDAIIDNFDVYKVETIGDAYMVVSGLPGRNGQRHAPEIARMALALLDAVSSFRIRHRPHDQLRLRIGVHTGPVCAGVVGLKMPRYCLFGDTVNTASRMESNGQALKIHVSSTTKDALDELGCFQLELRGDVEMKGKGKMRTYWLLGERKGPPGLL
Excerpt: (§1) Sphingolipids and calcium have been implicated in regulating natriuretic peptide signaling (Abbey-Hosch et al. [2004]; Abbey and Potter [2002]). Therefore, we examined the role of sphingosine-1-phosphate (S1P) on CNP-stimulated cGMP accumulation. […] However, S1P pre-treatment did cause desensitization of CNP-stimulated cGMP accumulation (by 30 ± 2.7 % compared with control, **P < 0.01).
(§2) Fig. 6 Evidence of sphingosine-mediated but not calcium-mediated, heterologous desensitization of GC-B signaling in GH3 somatolactotrope cells. GH3 cells were pre-treated with PSS containing either (a, b) 10 μM sphingosine-1-phosphate (S1P) or (c, d) 1 μM A23187 (calcium ionophore) for 30 min in the absence of IBMX, before a 15-min stimulation with either 100 nM CNP (a, c) or 100 nM ANP (b, d) in the presence of 1 mM IBMX.
(§3) Subsequent experiments examined the potential regulation of GC-B signaling by other peptide hormones. To determine whether the GC-B receptor underwent heterologous desensitization in GH3 cells, the effect of three known activators of PKC on CNP-stimulated cGMP accumulation was analyzed. […] To establish whether the TRH-induced heterologous desensitization of GC-B signaling was PKC-dependent, GH3 cells were pre-treated with either 0 or 1 μM GF109203X for 30 min to inhibit PKC activity. After this, cells were further pre-treated in the absence or presence of GF109203X and 0 or 100 nM TRH for a further 30 min, prior to stimulation with 0 or 100 nM CNP for a final 15-min stimulation in the presence of 1 mM IBMX.
(§4) Fig. 7 Protein kinase C (PKC)-dependent heterologous desensitization mediates the effects of thyrotrophin-releasing hormone (TRH) on CNP-stimulated GC-B signaling in GH3 somatolactotrope cells. a GH3 cells were pre-treated with PSS containing either 0 or 100 nM TRH, phorbol-12-myristate-13-acetate (PMA), or pituitary adenylate cyclase-activating polypeptide (PACAP) for 30 min in the absence of IBMX, before a 15-min stimulation with either 0 or 100 nM CNP in the presence of 1 mM IBMX.

GH3 cells = assay: Basal cGMP accumulation in GH3 cells after pre-treatment; type: cell-based, rat; settings: 30 min pre-treatment
Excerpt: as §1, §2, §3, §4

GC-A = molecular target: T2, GC-A (Rattus norvegicus, UniProt P18910); assay: Heterologous desensitization of ANP-stimulated (GC-A) cGMP accumulation in GH3 cells; type: cell-based
T2 construct: Evidence of homologous desensitization of endogenous GC-A- and GC-B-mediated signaling in GH3 cells; endogenous in cells; host or cells: GH3 rat somatolactotrope cells
T2 sequence (P18910 29-1057): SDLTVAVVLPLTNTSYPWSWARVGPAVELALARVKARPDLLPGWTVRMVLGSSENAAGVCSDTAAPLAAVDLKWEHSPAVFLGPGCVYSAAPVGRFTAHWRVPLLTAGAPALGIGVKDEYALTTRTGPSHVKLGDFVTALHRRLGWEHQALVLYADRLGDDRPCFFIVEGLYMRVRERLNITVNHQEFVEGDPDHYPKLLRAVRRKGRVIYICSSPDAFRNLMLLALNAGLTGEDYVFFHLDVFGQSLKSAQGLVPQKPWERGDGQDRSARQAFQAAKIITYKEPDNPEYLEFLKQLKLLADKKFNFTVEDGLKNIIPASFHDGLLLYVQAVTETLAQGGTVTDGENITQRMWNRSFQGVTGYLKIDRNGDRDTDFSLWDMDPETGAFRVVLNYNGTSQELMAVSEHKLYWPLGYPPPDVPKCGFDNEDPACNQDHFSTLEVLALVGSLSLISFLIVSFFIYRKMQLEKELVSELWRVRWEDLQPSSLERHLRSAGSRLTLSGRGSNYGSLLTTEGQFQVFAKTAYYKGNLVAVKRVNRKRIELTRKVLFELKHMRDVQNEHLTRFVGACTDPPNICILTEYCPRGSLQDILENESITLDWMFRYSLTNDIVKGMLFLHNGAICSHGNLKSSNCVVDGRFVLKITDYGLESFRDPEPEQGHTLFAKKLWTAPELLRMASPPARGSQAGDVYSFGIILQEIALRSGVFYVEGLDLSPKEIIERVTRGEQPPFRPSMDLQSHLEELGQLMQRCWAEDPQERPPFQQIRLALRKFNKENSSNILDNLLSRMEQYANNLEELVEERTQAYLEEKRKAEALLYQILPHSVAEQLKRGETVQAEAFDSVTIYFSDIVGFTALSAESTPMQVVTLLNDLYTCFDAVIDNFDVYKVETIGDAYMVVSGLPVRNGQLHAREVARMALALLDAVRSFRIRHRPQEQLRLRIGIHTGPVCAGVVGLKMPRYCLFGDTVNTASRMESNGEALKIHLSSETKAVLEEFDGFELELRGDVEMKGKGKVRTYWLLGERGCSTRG
Excerpt: as §1
Fig. 6 Evidence of sphingosine-mediated but not calcium-mediated, heterologous desensitization of GC-B signaling in GH3 somatolactotrope cells. […]

GC-B [2] = settings: NIH3T3, A10, 293 T cells; ref Abbey-Hosch et al. [2004], [2005]; cited from earlier work
Excerpt: Heterologous desensitization of the natriuretic peptide receptors has been widely reported. Sphinogosine signaling is implicated in GC-B desensitization in NIH3T3 fibroblasts, A10 vascular smooth muscle cells and 293 T cells (Abbey-Hosch et al. [2004], [2005]). […] In the current study, we observed a modest effect of S1P pre-treatment of CNP-stimulated cGMP accumulation in GH3 ce ...

GC-B [3] = molecular target: T1, GC-B; assay: Effect of protein phosphatase inhibitors on rapid homologous desensitization of CNP-stimulated cGMP accumulation in GH3 cells; type: cell-based; settings: for rate of cGMP accumulation from 5 to 15 min (desensitization): 100 nM CNP, 1 mM IBMX, 30 min pre-treatment with 100 nM OA, 1 nM cypermethrin or 1 mM Na3VO4, control = CNP alone, n = 3; for reversal of the failure to maintain the initial rate of cGMP accumulation: 30 min pre-treatment with phosphatase inhibitor, then 100 nM CNP, discussion statement
Protocol: Fig. 2 Rapid homologous desensitization of CNP-dependent but not ANP-dependent cGMP accumulation in GH3 cells. Cells were treated with PSS containing either (a) 100 nM CNP or (b) 100 nM ANP for 0–15 min in the presence of 1 mM IBMX.
Similar short time-courses were performed, except that some cells were pre-treated with 100 nM okadaic acid (OA, a PP2A inhibitor), 1 nM cypermethrin (a PP2B inhibitor), or 1 mM sodium orthovanadate (Na3VO4, a protein tyrosine phosphatase inhibitor) for 30 min prior to CNP treatment (Fig. 2c).

[4] = 100 nM TRH, PMA or PACAP, ns, P > 0.05, Fig. 7a

pituitary adenylate cyclase-activating polypeptide [PACAP]
effect on CNP-stimulated cGMP accumulation (GC-B [1]; 100 nM PACAP 30 min pre-treatment, then 100 nM CNP 15 min with 1 mM IBMX, ns, P > 0.05, Fig. 7a): failed to alter CNP-stimulated cGMP accumulation
basal cGMP accumulation (GH3 cells; [4]): failed to alter basal cGMP accumulation

CNc1ccc2oc(C[C@H]3O[C@@]4(CC[C@H]3C)O[C@H]([C@H](C)C(=O)c3ccc[nH]3)[C@H](C)C[C@H]4C)nc2c1C(=O)O [A23187]
effect on CNP-stimulated cGMP accumulation (GC-B [1]; 10 μM A23187 30 min pre-treatment, then 100 nM CNP 15 min, Fig. 6c): failed to alter either CNP- or ANP-stimulated cGMP accumulation
effect on ANP-stimulated cGMP accumulation (GC-A; 10 μM A23187 30 min pre-treatment, then 100 nM ANP 15 min, Fig. 6d): failed to alter either CNP- or ANP-stimulated cGMP accumulation

CCCCCCCCCCCCC/C=C/[C@@H](O)[C@@H](N)COP(=O)(O)O [S1P, sphingosine-1-phosphate]
desensitization (reduction) of CNP-stimulated cGMP accumulation vs control (GC-B [1]; 10 μM S1P 30 min pre-treatment without IBMX, then 100 nM CNP 15 min with 1 mM IBMX, **P < 0.01, n = 3, Fig. 6a): 30 ± 2.7%
basal cGMP accumulation (GH3 cells; 10 μM S1P, Fig. 6a): failed to significantly alter basal cGMP accumulation
mechanism of GC-B desensitization (GC-B [2]): does not require PKC activation but is reliant on the elevation of intracellular Ca^2+ levels
desensitization of ANP-stimulated cGMP accumulation (GC-A; 10 μM S1P 30 min pre-treatment, then 100 nM ANP 15 min with 1 mM IBMX, ns, P > 0.05, Fig. 6b): did not result in desensitization of ANP-stimulated cGMP accumulation

thyrotrophin-releasing hormone [TRH]
CNP-stimulated cGMP, % of control response to CNP (reduced to) (GC-B [1]; 100 nM TRH 30 min pre-treatment without GF109203X, then 100 nM CNP 15 min with 1 mM IBMX, P < 0.001, n = 3, Fig. 7b): 20.1 ± 5.4%
reduction in CNP-stimulated cGMP accumulation compared with control (GC-B [1]; 100 nM, 30 min pre-treatment without IBMX, then 100 nM CNP 15 min with 1 mM IBMX, ***P < 0.001, n = 3, Fig. 7a): 44.6 ± 2.5%
basal cGMP accumulation (GH3 cells; [4]): failed to alter basal cGMP accumulation

C[C@H](CCC(=O)O)C[C@H](C)C[C@H](C)C(=O)/C=C(\O)[C@H](C)C[C@H](C)C/C=C/[C@@H](C)[C@@H](O)[C@@H](C)[C@@H](O)C[C@@H]1CC[C@@](C)([C@H]2CC[C@@](C)([C@@H](C)O)O2)O1 [ionomycin]
mechanism of GC-B desensitization (GC-B [2]): having a similar effect

CC1(C)C(C=C(Cl)Cl)C1C(=O)OC(C#N)c1cccc(Oc2ccccc2)c1 (stereo not drawn) [cypermethrin]
rate of cGMP accumulation from 5 to 15 min (desensitization) (GC-B [3]): failed to maintain a significant rate of cGMP accumulation
reversal of the failure to maintain the initial rate of cGMP accumulation (GC-B [3]): failed to reverse the apparent homologous desensitization

[Na+].[Na+].[Na+].[O]=[V]([O-])([O-])[O-] [Na3VO4, sodium orthovanadate]
rate of cGMP accumulation from 5 to 15 min (desensitization) (GC-B [3]): failed to maintain a significant rate of cGMP accumulation
reversal of the failure to maintain the initial rate of cGMP accumulation (GC-B [3]): failed to reverse the apparent homologous desensitization

C=C1[C@@H](O)[C@@H]2O[C@]3(CC[C@H](/C=C/[C@@H](C)[C@@H]4CC(C)=C[C@@]5(O[C@H](C[C@@](C)(O)C(=O)O)CC[C@H]5O)O4)O3)CC[C@H]2O[C@@H]1[C@@H](O)C[C@H](C)[C@H]1O[C@@]2(CCCCO2)CC[C@H]1C [OA, okadaic acid]
rate of cGMP accumulation from 5 to 15 min (desensitization) (GC-B [3]): maintained a significant rate of cGMP accumulation from 5 to 15 min
reversal of the failure to maintain the initial rate of cGMP accumulation (GC-B [3]): partially reversed the failure to maintain the initial rate of cGMP accumulation
